Reference: paper PMC8583776, “PD-L1 Inhibitors: Different Classes, Activities, and Mechanisms of Action” (International Journal of Molecular Sciences, 2021)
Read-outs that look alike come from different tables or passages of the source.

Tests used:
[1] = biological target: T1, PD-1/PD-L1 immune checkpoint (Homo sapiens, UniProt Q9NZQ7); conditions: cited from earlier work; for ICB Assay %RLUmax: % of activation by therapeutic anti-PD-L1 antibody; for EC50: read-out: ICB Assay EC50
T1 construct: host or cells: CHO-K1 (CHO/TCRAct/PD-L1) cells and Jurkat Effector Cells

mPD-L1 = system: mPD-L1; parameters: method as in PMID 33437940; conditions: cited from earlier work; for Target Specificity mPD-L1: mouse PD-L1
hPD-1/hPD-L1 complex [2] = biological target: T2, hPD-1/hPD-L1 complex (Homo sapiens, UniProt Q9NZQ7); conditions: cited from earlier work
T2 construct: Tag1 or Tag2 (kit tag, identity not disclosed); purchased CisBio (Codolet, France)

PD-1/PD-L1 complex = conditions: various assays; cited from earlier work
PD-1 = conditions: cited from earlier work
human PD-L1 [3] = conditions: cited from earlier work
human PBMCs = system: human PBMCs; parameters: method as in PMID 31374878; conditions: cited from earlier work
mouse T cells = system: mouse T cells; parameters: method as in PMID 31374878; conditions: cited from earlier work
MC38-hPD-L1 tumor model = system: MC38-hPD-L1 tumor model; parameters: method as in PMID 33619272; conditions: humanized double knock-in mice for PD-1 and PD-L1; cited from earlier work
PD-L1 = system: PD-L1; parameters: method as in PMID 33619272; conditions: cited from earlier work
human PD-L1 [4] = system: human PD-L1; parameters: method as in PMID 29069777, PMID 28613862, PMID 27083005, PMID 33619272; conditions: in vitro PD-L1 dimerization in the presence of the molecule; cited from earlier work
hPD-L1 = system: hPD-L1; parameters: method as in PMID 33437940; conditions: cited from earlier work
hPD-1/hPD-L1 complex [5] = biological target: T2, hPD-1/hPD-L1 complex; test: HTRF assay of PD-1/PD-L1 complex formation blockade; assay type: binding; conditions: Figure A2, 5 nM hPD-L1, 50 nM hPD-1
From the text: We performed a comparison of the in vitro targeting of the PD-1/PD-L1 immune checkpoint with molecules selected from various classes, including small molecules, macrocyclic peptides, and monoclonal antibodies. For this, two standardized and popular techniques used in the available literature were applied: the protein-based Homogeneous Time-Resolved Fluorescence (HTRF) method and the cell-based Immune Checkpoint Blockade (ICB) assay. Using these methods, three parameters describing the in vitro potency of the tested compounds were determined: (i) IC50 values of the blockade of PD-1/PD-L1 complex formation (from HTRF); (ii) EC50 values of the reactivation of the effector T cells blocked with PD-L1 (from ICB); and (iii) maximal activation levels of the effector T cells, calculated as the % of the activation in the presence of therapeutic anti-PD-L1 antibody atezolizumab or durvalumab. […]
The certified CisBio (Codolet, France) HTRF assay was used to determine the IC50 values of the compounds according to the manufacturer’s guidelines. […] IC50 of tested compounds was determined for two individual dilution series unless stated otherwise. After mixing, the plate was left for 2 h incubation at room temperature and later measured using Tecan Spark 20M multimode microplate reader (Tecan, Männedorf, Switzerland). […]

[6] = authors' laboratory, read-out: HTRF IC50 Ours
[7] = other laboratories, read-out: HTRF IC50 Other

T2 sequence (Q9NZQ7 19-238 limits assumed, one chain of several): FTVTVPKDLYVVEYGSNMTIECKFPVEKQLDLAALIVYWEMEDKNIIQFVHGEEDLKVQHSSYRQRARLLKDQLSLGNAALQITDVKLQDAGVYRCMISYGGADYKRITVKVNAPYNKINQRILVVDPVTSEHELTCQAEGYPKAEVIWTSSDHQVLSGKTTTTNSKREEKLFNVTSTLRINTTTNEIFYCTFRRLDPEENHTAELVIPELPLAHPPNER
T1 sequence (Q9NZQ7 19-290): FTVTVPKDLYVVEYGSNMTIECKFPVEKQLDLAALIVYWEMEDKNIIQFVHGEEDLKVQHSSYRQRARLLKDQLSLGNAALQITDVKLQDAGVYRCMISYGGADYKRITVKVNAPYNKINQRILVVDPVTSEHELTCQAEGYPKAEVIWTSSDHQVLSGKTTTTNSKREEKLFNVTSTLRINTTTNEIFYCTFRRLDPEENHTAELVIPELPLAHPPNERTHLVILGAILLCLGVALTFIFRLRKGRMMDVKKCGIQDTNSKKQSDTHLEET

| Compound | ICB Assay %RLUmax [1] [%] | EC50 [1] [nM] | Target Specificity mPD-L1 (mPD-L1) | IC50 (hPD-1/hPD-L1 complex [2]; [7]) [nM] | other results |
| --- | --- | --- | --- | --- | --- |
| CC(=O)NCCNCc1cc(C)c(OCc2cccc(-c3cccc(COc4cc(OCc5cccc(C#N)c5)c(CNCCNC(C)=O)cc4C)c3C)c2C)cc1OCc1cccc(C#N)c1 [2b] | 93 | 763 | No | – | – |
| O=C(O)[C@@H]1CCCCN1Cc1ccc(OCc2cccc(-c3ccccc3)c2Br)c(Br)c1 [2k] | 87 | 6630 | No | – | IC50 (hPD-1/hPD-L1 complex [2]; [6]): 14.9 nM |
| COc1cc(-c2cccc(-c3ccc4c(c3)OCCO4)c2Cl)ccc1CNC(CO)(CO)CO [8j] | 87 | 1030 | No | – | IC50 (hPD-1/hPD-L1 complex [2]; [6]): < 1 nM |
| CC(=O)NCCNCc1cc(C)c(OCc2cccc(-c3cccc4c3CCN4CCCN3CCC(O)CC3)c2C)cc1OCc1cccc(C#N)c1 [A20] | 55 | 430 | – | 17 | – |
| COc1nc(OCc2cccc(-c3ccccc3)c2C)ccc1CNCCNC(C)=O [BMS-202] | – | – | No | – | – |
| Cc1c(COc2cc(OCc3cccc(C#N)c3)c(CN3C[C@H](O)C[C@@H]3C(=O)O)cc2Cl)cccc1-c1ccc2c(c1)OCCO2 [BMS-1166] | – | – | No | – | – |
| COc1cc(-c2cccc(-c3cccc(-c4ccc(CN5CC(C(=O)O)C5)c(OC)c4)c3C)c2C)ccc1CN1CC(C(=O)O)C1 [C13] | 100 | 104 | – | 4.23 | – |
| C[C@@H](O)[C@H](NC(=O)N[C@@H](CC(N)=O)c1nc([C@@H](N)CO)no1)C(=O)O [CA-170] | – | – | – | – | activity in PD-1/PD-L1-focused cell-based ICB assay [1]: inactive; dissociation of the PD-1/PD-L1 complex (PD-1/PD-L1 complex): unable to dissociate the PD-1/PD-L1 complex; direct binding to PD-1 (PD-1): direct binder of neither human PD-L1 nor PD-1; direct binding to human PD-L1 (human PD-L1 [3]): direct binder of neither human PD-L1 nor PD-1; activation of human PBMCs (human PBMCs): increase the activation of human PBMCs; activation of mouse T cells (mouse T cells): increase the activation of human PBMCs and mouse T cells |
| O=C(O)[C@H](CO)NCc1ccc2c(Nc3cccc(-c4ccc5c(c4)OCCO5)c3Cl)nsc2c1 [CH20] | 93 | 5600 | – | 8.5 | – |
| O=C(O)[C@H](CO)NCc1cc(Br)c(OCc2cccc(-c3ccccc3)c2Br)cc1OCc1ccc2nonc2c1 [L7] | 75 | 375 | – | – | – |
| Cc1c(NC(=O)c2ccc(CNCCO)cn2)cccc1-c1cccc(NC(=O)c2ccc(CNCCO)cn2)c1C [comp. A] | 86.3 | 18.9 | No | 0.4 | in vivo bioactivity (MC38-hPD-L1 tumor model): succeeded in showing the bioactivity; dimerization of PD-L1 in a cellular context (PD-L1): dimerization of PD-L1 |
| atezolizumab: therapeutic anti-PD-L1 antibody | 100 | 0.14 | – | – | PD-L1 Dimerization (human PD-L1 [4]): No; blockade of mouse PD-L1 (mPD-L1): blocks both human and mouse PD-L1; blockade of human PD-L1 (hPD-L1): blocks both human and mouse PD-L1 |
| durvalumab: therapeutic anti-PD-L1 antibody | 100 | 0.23 | No | – | PD-L1 Dimerization (human PD-L1 [4]): No; IC50 (hPD-1/hPD-L1 complex [5]; read-out: HTRF IC50): 0.0966 nM; IC50 (hPD-1/hPD-L1 complex [5]; [6]): 0.1 nM; blockade of mouse PD-L1 (mPD-L1): not the mouse PD-L1; blockade of human PD-L1 (hPD-L1): blocks the human PD-L1 |
| nivolumab: therapeutic antibody | 100 | 1.27 | – | 0.2 | – |
| p57: macrocyclic peptide PD-L1 inhibitor disclosed by Bristol Myers Squibb | – | 566 | – | 9 | – |
| p71: macrocyclic peptide PD-L1 inhibitor disclosed by Bristol Myers Squibb | – | 293 | – | 7 | – |
| p101: macrocyclic peptide PD-L1 inhibitor disclosed by Bristol Myers Squibb (FFIVIRDRVFRCG) | – | 7500 | – | 120 | IC50 (hPD-1/hPD-L1 complex [2]; [6]): 27.8 nM |
